Results published in the NIST ThermoML archive (doi:10.1007/s10765-013-1539-3).

Test: wn = mass fraction of the nth substance listed
Conditions: Gas, Steady Flow, w1 = 0.5

[HH] [hydrogen] + C
binary diffusion coefficient [m2/s]
Conditions | 250 K | 280 K | 320 K | 400 K | 480 K | 560 K | 640 K | 720 K | 800 K | 900 K
100 kPa | 5.3e-05 | 6.6e-05 | 8.3e-05 | 0.000124 | 0.000173 | 0.000227 | 0.00029 | 0.00036 | 0.000434 | 0.00054
4000 kPa | 1.32e-05 | 1.84e-05 | 2.31e-05 | 3.62e-05 | 5.1e-05 | 6.7e-05 | 8.4e-05 | 0.000106 | 0.000129 | 0.000159
7000 kPa | 6.3e-06 | 8.5e-06 | 1.17e-05 | 1.82e-05 | 2.52e-05 | 3.43e-05 | 4.35e-05 | 5.4e-05 | 6.5e-05 | 8.1e-05
10000 kPa | 3.8e-06 | 5.4e-06 | 7.5e-06 | 1.2e-05 | 1.72e-05 | 2.3e-05 | 2.93e-05 | 3.61e-05 | 4.41e-05 | 5.42e-05
15000 kPa | 2.91e-06 | 4.05e-06 | 5.8e-06 | 9.5e-06 | 1.36e-05 | 1.79e-05 | 2.28e-05 | 2.81e-05 | 3.37e-05 | 4.11e-05

[HH] [hydrogen] + CCC
binary diffusion coefficient [m2/s]
Conditions | 250 K | 280 K | 320 K | 400 K | 480 K | 560 K | 640 K | 720 K | 800 K | 900 K
100 kPa | 3.28e-05 | 4.01e-05 | 5e-05 | 7.4e-05 | 0.000101 | 0.000131 | 0.000164 | 0.0002 | 0.00024 | 0.000292
3500 kPa | – | – | – | 1.6e-05 | 2.58e-05 | 3.56e-05 | 4.57e-05 | 5.63e-05 | 6.8e-05 | 8.3e-05
7000 kPa | – | – | – | 4.5e-06 | 1.14e-05 | 1.7e-05 | 2.21e-05 | 2.78e-05 | 3.37e-05 | 4.24e-05
10500 kPa | – | – | – | 2.98e-06 | 6.8e-06 | 1.07e-05 | 1.47e-05 | 1.83e-05 | 2.23e-05 | 2.83e-05
14000 kPa | – | – | – | 2.72e-06 | 4.9e-06 | 7.89e-06 | 1.08e-05 | 1.37e-05 | 1.65e-05 | 2.04e-05
